Measurements taken from ChEMBL document CHEMBL5042486, “Discovery and Preclinical Characterization of BIIB091, a Reversible, Selective BTK Inhibitor for the Treatment of Multiple Sclerosis” (J Med Chem, 2022).
≈ marks a conversion by molar mass, not a printed value. Each block holds one compound with its values, some of them ahead of it.

How the values were obtained:
[1] = target: T1, Tyrosine-protein kinase BTK (Homo sapiens, UniProt Q06187); experiment: Inhibition of human BTK using fluorescein-labeled polyGAT peptide as substrate incubated for 30 mins by FRET assay
T1 sequence (Q06187 whole entry): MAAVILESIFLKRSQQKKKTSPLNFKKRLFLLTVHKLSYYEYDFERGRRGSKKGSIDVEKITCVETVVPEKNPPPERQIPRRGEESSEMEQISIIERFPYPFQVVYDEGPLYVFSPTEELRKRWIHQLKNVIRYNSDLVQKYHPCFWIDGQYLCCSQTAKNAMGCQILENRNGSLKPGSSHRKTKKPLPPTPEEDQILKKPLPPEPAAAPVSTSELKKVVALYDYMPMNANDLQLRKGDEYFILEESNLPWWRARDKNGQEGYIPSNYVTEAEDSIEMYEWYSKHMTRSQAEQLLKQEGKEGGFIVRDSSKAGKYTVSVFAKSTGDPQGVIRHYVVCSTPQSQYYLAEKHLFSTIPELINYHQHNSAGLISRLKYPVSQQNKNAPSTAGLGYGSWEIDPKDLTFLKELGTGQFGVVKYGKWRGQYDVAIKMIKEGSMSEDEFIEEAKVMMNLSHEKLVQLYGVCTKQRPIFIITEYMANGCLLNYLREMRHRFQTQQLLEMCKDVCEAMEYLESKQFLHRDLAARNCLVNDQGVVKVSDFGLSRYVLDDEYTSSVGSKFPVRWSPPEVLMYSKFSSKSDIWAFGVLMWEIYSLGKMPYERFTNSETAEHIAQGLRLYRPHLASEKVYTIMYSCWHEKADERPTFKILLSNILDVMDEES

[2] = Kinetic aqueous solubility of the compound in pH 6.8; format: physicochemical; conditions: read-out: Kinetic_solubility
[3] = Lipophilicity, logD of the compound at pH 7.6 by shake flask assay; format: physicochemical; conditions: buffer
[4] = Kinetic solubility of the compound at pH 7.5 by shake flask method; format: physicochemical; conditions: buffer, read-out: Kinetic_solubility
[5] = Half life in Beagle dog at 5 mg/kg, po; format: ADME, organism-based, Canis lupus familiaris; conditions: in vivo
[6] = Kinetic aqueous solubility of the compound in pH 3; format: physicochemical; conditions: read-out: Kinetic_solubility
[7] = Protein binding in human plasma assessed as unbound fraction at 2 uM by rapid equilibrium dialysis method; format: ADME, cell-free
[8] = Kinetic solubility of the compound at pH 1.5 by shake flask method; format: physicochemical; conditions: buffer, read-out: Kinetic_solubility
[9] = Half life in Sprague-Dawley rat at 5 mg/kg, po; format: ADME, organism-based; conditions: in vivo
[10] = Protein binding in rat plasma assessed as unbound fraction at 2 uM by rapid equilibrium dialysis method; format: ADME, cell-free
Cytochrome P450 2C9 = Cytochrome P450 2C9 (Homo sapiens, UniProt P11712); experiment: Inhibition of CYP2C9 (unknown origin); format: ADME
Chain of Cytochrome P450 2C9 (P11712 whole entry): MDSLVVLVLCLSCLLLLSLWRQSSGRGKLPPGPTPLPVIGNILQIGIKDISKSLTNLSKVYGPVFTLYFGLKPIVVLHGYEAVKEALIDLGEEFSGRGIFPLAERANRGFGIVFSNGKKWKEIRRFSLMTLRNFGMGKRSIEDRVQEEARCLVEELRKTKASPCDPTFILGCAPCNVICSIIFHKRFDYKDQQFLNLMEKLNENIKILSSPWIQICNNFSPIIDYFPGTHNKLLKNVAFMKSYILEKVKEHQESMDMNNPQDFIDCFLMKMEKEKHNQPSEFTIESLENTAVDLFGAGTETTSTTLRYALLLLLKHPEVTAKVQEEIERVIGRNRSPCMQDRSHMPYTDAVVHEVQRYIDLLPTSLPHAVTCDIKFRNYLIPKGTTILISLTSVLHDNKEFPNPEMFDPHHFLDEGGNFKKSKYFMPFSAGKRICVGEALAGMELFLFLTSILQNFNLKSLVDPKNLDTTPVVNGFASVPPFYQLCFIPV

Cytochrome P450 3A4 = Cytochrome P450 3A4 (Homo sapiens, UniProt P08684); experiment: Inhibition of CYP3A4 (unknown origin); format: ADME
Chain of Cytochrome P450 3A4 (P08684 whole entry): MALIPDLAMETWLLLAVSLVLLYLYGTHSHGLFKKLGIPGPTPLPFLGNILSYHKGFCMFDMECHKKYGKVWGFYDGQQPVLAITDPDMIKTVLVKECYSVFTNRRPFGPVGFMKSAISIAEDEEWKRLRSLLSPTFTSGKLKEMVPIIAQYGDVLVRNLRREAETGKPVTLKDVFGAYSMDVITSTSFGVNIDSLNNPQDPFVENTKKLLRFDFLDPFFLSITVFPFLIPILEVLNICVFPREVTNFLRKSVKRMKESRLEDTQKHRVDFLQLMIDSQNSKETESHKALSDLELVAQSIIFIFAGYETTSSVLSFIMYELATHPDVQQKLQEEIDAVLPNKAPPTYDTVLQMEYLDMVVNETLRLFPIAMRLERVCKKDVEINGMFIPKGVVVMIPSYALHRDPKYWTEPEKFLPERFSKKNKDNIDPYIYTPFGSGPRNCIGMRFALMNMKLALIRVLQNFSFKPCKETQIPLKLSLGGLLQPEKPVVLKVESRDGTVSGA

[11] = Dissociation constant, pKa of the compound; format: physicochemical
[12] = target: T1, Tyrosine-protein kinase BTK; experiment: Inhibition of BTK phosphorylation in human whole blood assessed as reduction in BTK phosphorylation incubated for 30 mins; format: tissue-based
[13] = Solubility of the compound in FeSIF at pH 5.9; format: physicochemical
[14] = Cmax in Beagle dog at 5 mg/kg, po; format: ADME, organism-based, Canis lupus familiaris; parameters: route oral, dose 5 mg/kg; conditions: in vivo
[15] = Oral bioavailability in Beagle dog at 5 mg/kg; format: ADME, organism-based, Canis lupus familiaris; conditions: in vivo
[16] = Clearance in Sprague-Dawley rat at 1 mg/kg, iv; format: ADME, organism-based; conditions: in vivo
[17] = Clearance in Sprague-Dawley rat assessed as hepatic blood flow at 1 mg/kg, iv; format: ADME, organism-based, Liver; conditions: in vivo
[18] = Oral bioavailability in Sprague-Dawley rat at 5 mg/kg; format: ADME, organism-based; conditions: in vivo
[19] = AUC in Sprague-Dawley rat at 5 mg/kg, po; format: ADME, organism-based; parameters: dose 5 mg/kg; conditions: in vivo
[20] = Clearance in Beagle dog at 1 mg/kg, iv; format: ADME, organism-based, Canis lupus familiaris; conditions: in vivo
[21] = AUC in Beagle dog at 5 mg/kg, po; format: ADME, organism-based, Canis lupus familiaris; parameters: dose 5 mg/kg; conditions: in vivo
[22] = Cmax in Sprague-Dawley rat at 5 mg/kg, po; format: ADME, organism-based; parameters: route oral, dose 5 mg/kg; conditions: in vivo
[23] = Clearance in Beagle dog assessed as hepatic blood flow at 1 mg/kg, iv; format: ADME, organism-based, Canis lupus familiaris, Liver; conditions: in vivo
[24] = Volume of distribution at steady state in Beagle dog at 1 mg/kg, iv; format: ADME, organism-based, Canis lupus familiaris; conditions: in vivo, read-out: Vdss
[25] = Solubility of the compound in FaSIF at pH 6.5; format: physicochemical
[26] = Solubility of the compound in simulated gastric fluid at pH 1.6; format: physicochemical
[27] = Volume of distribution at steady state in Sprague-Dawley rat at 1 mg/kg, iv; format: ADME, organism-based; conditions: in vivo, read-out: Vdss

SMILES: Cn1cc(Nc2nccc(-c3ccc4c(c3)CCCC[C@H]4NC(=O)c3nc(C(C)(C)C)no3)n2)cn1
- solubility kinetic [2]: < 20 µg/mL
- logD [3]: 2.8
- fraction unbound at 2 µM [10]: 0.009
- IC50 (Cytochrome P450 2C9): 400 nM
- IC50 (Cytochrome P450 3A4): 2.6 µM
- fraction unbound at 2 µM [7]: 0.008
- solubility kinetic [8]: > 50 µg/mL

SMILES: Cn1cc(Nc2nccc(-c3ccc4c(c3)CCNC[C@H]4NC(=O)c3cn(C(C)(C)C)nn3)n2)cn1
- solubility kinetic [2]: > 50 µg/mL
- logD [3]: 2.3
- fraction unbound at 2 µM [7]: 0.12
- solubility kinetic [8]: > 50 µg/mL

SMILES: CN1CC[C@@H](NC(=O)c2cn(C(C)(C)C)nn2)c2ccc(-c3ccnc(Nc4cnn(C)c4)n3)cc2C1
- solubility kinetic [2]: > 50 µg/mL
- logD [3]: 1
- IC50 [1]: 0.8 nM
- pKa [11]: 4
- fraction unbound at 2 µM [7]: 0.19
- solubility kinetic [8]: > 50 µg/mL

SMILES: Cn1cc(Nc2nccc(-c3ccc4c(c3)CCCC[C@H]4NC(=O)c3nnc(C(C)(C)C)o3)n2)cn1
- solubility kinetic [2]: < 20 µg/mL
- logD [3]: 2.3
- fraction unbound at 2 µM [10]: 0.008
- IC50 (Cytochrome P450 2C9): 4000 nM
- IC50 (Cytochrome P450 3A4): > 10 µM
- fraction unbound at 2 µM [7]: 0.041
- solubility kinetic [8]: > 50 µg/mL

SMILES: COCCN1CC[C@@H](NC(=O)c2cn(C(C)(C)C)nn2)c2ccc(-c3ccnc(Nc4cnn(C)c4)n3)cc2C1
- solubility kinetic [2]: > 50 µg/mL
- logD [3]: 2.9
- pKa [11]: 3.1
- fraction unbound at 2 µM [7]: 0.1
- solubility kinetic [8]: > 50 µg/mL

SMILES: C=CC(=O)Nc1cccc(Oc2nc(Nc3ccc(N4CCN(C)CC4)cc3)nc3ccoc23)c1 [POSELTINIB]
- IC50 [1]: 1 nM

SMILES: Cn1cc(Nc2nccc(-c3ccc4c(c3)CNCC[C@H]4NC(=O)c3cn(C(C)(C)C)nn3)n2)cn1
- solubility kinetic [2]: > 50 µg/mL
- logD [3]: 2.9
- fraction unbound at 2 µM [7]: 0.18
- solubility kinetic [8]: > 50 µg/mL

SMILES: CN1CCc2cc(-c3ccnc(Nc4cnn(C)c4)n3)ccc2[C@H](NC(=O)c2cn(C(C)(C)C)nn2)C1
- logD [3]: 2.9
- fraction unbound at 2 µM [7]: 0.07
- solubility kinetic [8]: > 50 µg/mL

SMILES: CC(C)OC1CN(C(=O)NC2CCCc3cc(-c4ccnc(Nc5cnn(C)c5)n4)ccc32)C1 (stereo unspecified)
- solubility kinetic [2]: > 30 µg/mL
- solubility kinetic [6]: > 30 µg/mL

SMILES: Cn1cc(Nc2nccc(-c3ccc4c(c3)CCCC[C@H]4NC(=O)c3cn(C(C)(C)C)nn3)n2)cn1
- solubility kinetic [2]: < 20 µg/mL
- logD [3]: 3.5
- fraction unbound at 2 µM [10]: 0.002
- IC50 (Cytochrome P450 2C9): 2000 nM
- IC50 (Cytochrome P450 3A4): 6.4 µM
- fraction unbound at 2 µM [7]: 0.011
- solubility kinetic [8]: > 50 µg/mL

SMILES: Cc1c(-c2c(F)cc(C(N)=O)c3[nH]c4c(c23)CC[C@H](C(C)(C)O)C4)cccc1-n1c(=O)c2cccc(F)c2n(C)c1=O [BMS-986142]
- IC50 [1]: 1 nM
- IC50 [12]: 110 nM

SMILES: CC(C)OC1CN(C(=O)N[C@@H]2CCCCc3cc(-c4ccnc(Nc5cnn(C)c5)n4)ccc32)C1
- solubility [13]: 170 µg/mL (≈ 357 µM)
- logD [3]: 3.6
- Cmax [14]: 3710 ng/mL
- bioavailability [15]: 92%
- solubility kinetic [4]: > 30 µg/mL
- clearance [16]: 6 mL/min/kg
- QH [17]: 11%
- bioavailability [18]: 69%
- AUC [19]: 6940 ng·h/mL
- half-life [5]: 144 min
- clearance [20]: 4 mL/min/kg
- AUC [21]: 14200 ng·h/mL
- Cmax [22]: 2460 ng/mL
- QH [23]: 31%
- Vd [24]: 1.6 L/kg
- solubility [25]: 80 µg/mL (≈ 168 µM)
- fraction unbound at 2 µM [7]: 0.07
- solubility kinetic [8]: > 30 µg/mL
- half-life [9]: 78 min
- solubility [26]: > 15 mg/mL
- Vd [27]: 0.6 L/kg

SMILES: Cc1c(NC(=O)c2cc3c(s2)CCCC3)cccc1-c1cn(C)c(=O)c(Nc2ccc(C3CN(C)CC(=O)N3C)cc2)n1 (stereo unspecified)
- IC50 [1]: 1 nM
- IC50 [12]: 150 nM

The next lines start with the values.

- IC50 [1]: > 10000 nM
SMILES: Cc1cc(-c2ccnc(Nc3cnn(C)c3)n2)c(F)cc1CNC(=O)N1CC(OC(C)C)C1

- solubility kinetic [2]: < 30 µg/mL
- logD [3]: 2.7
- solubility kinetic [4]: > 30 µg/mL
- half-life [5]: 126 min
- solubility kinetic [6]: > 30 µg/mL
- fraction unbound at 2 µM [7]: 0.06
- solubility kinetic [8]: < 30 µg/mL
- half-life [9]: 72 min
SMILES: Cc1cc(-c2ccnc(Nc3cnn(C)c3)n2)ccc1CNC(=O)N1CC(OC(C)C)C1

- solubility kinetic [2]: < 10 µg/mL
- solubility kinetic [6]: < 10 µg/mL
SMILES: CC(C)OC1CN(C(=O)NCc2ccc(-c3ccnc(Nc4cnn(C)c4)n3)cc2C(F)(F)F)C1

- solubility kinetic [2]: > 10 µg/mL
- solubility kinetic [6]: > 10 µg/mL
SMILES: Cc1c(CNC(=O)N2CC(OC(C)C)C2)ccc(-c2ccnc(Nc3cnn(C)c3)n2)c1F

- solubility kinetic [2]: < 30 µg/mL
- solubility kinetic [6]: < 30 µg/mL
SMILES: CC(C)OC1CN(C(=O)NCc2ccc(-c3ccnc(Nc4cnn(C)c4)n3)cc2Cl)C1
